Data: patent US8822467B2 (Ligand Pharmaceuticals Inc., priority 2009, dated 2014)

The compounds below were run against T1, human CRTH2 (Homo sapiens, UniProt Q9Y5Y4) (assay: [35S]GTPγS binding assay (SPA) on membranes from CHO-K1 cells stably expressing human CRTH2, stimulated with 60 nM DHK-PGD2). Details: membranes of CHO-K1 cells expressing human CRTH2; 60 nM DHK-PGD2; Table 1; read-out: CRTH2 hGTPγS IC50.
T1 construct: expressed in transfected cells
T1 sequence (Q9Y5Y4 1-395): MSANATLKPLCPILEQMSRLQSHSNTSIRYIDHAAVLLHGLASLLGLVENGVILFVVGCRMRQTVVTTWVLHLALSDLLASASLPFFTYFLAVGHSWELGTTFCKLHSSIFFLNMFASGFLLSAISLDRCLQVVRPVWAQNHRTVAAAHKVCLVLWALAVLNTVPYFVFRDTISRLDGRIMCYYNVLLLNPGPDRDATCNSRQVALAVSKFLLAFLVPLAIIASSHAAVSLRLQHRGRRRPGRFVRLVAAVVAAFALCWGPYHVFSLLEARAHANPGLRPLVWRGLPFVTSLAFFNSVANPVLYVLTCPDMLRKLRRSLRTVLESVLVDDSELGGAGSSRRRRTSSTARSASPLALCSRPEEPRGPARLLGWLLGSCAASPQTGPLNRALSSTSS
Format: biochemical
Protocol: [^35S]GTPγS Binding Assay
SPA [^35S]G-TPγS binding was performed on membranes from CHO-K1 cells stably expressing human CRTH2. To a white, clear-bottomed 384-well plate, 4 μg membrane protein was incubated in the binding buffer (20 mM HEPES, pH 7.4, 10 mM MgCl2, 300 mM NaCl, 0.2% BSA) with 60 nM DHK-PGD2, 500 pM [^35S]GTPγS, 10 μM GDP, and 100 μg wheat germ agglutinin-coupled SPA beads (GE Healthcare) with and without increasing concentrations of compounds. The final assay volume was 40 μL and contained 1% DMSO. Samples were incubated for 2 h at ambient temperature. Plates were centrifuged 5 min at 1500 rpm. Plates were read after an additional 4 h using the Trilux 1450 Microbeta (PerkinElmer) with a 30 sec/well reading time.

Structure (SMILES) | IC50 [µM]
CN(Cc1ccc(OCC(=O)O)c(-c2cc(F)cc(C#N)c2)c1)S(=O)(=O)c1ccc(F)cc1 [Example 64, 2-(3-cyano-5-fluorophenyl)-4-((4-fluoro-N-methylphenylsulfonamido)methyl)phenoxyacetic acid] | 0.012
CN(Cc1ccc(OCC(=O)O)c(-c2cc(F)cc(F)c2)c1)S(=O)(=O)c1ccc(F)c(Cl)c1 [Example 67, 2-(3,5-difluorophenyl)-4-((3-chloro4-fluoro-N-methylphenylsulfonamido)methyl)phenoxyacetic acid] | 0.013

Same assay, conditions: potency class symbols; Table 2; read-out: CRTH2 hGTPγS IC50

Structure (SMILES) | IC50 [µM]
CN(Cc1ccc(OCC(=O)O)c(-c2cccc(S(C)(=O)=O)c2)c1)S(=O)(=O)c1ccc(F)cc1 [Example 60, 2-(3-methylsulfonylphenyl)-4-((4-fluoro-N-methylphenylsulfonamido)methyl)phenoxyacetic acid] | < 0.1
CN(Cc1ccc(OCC(=O)O)c(-c2cc(F)cc(C#N)c2)c1)S(=O)(=O)c1cccc(F)c1 [Example 61, 2-(3-cyano-5-fluorophenyl)-4-((3-fluoro-N-methylphenylsulfonamido)methyl)phenoxyacetic acid] | < 0.1
CN(Cc1ccc(OCC(=O)O)c(-c2cccc(C#N)c2)c1)S(=O)(=O)c1ccc(F)c(Cl)c1 [Example 62, 2-(3-cyanophenyl)-4-((3-chloro-4-fluoro-N-methylphenylsulfonamido)methyl)phenoxyacetic acid] | < 0.1
CN(Cc1ccc(OCC(=O)O)c(-c2cccc(C#N)c2)c1)S(=O)(=O)c1ccc(F)c(F)c1 [Example 63, 2-(3-cyanophenyl)-4-((3,4-difluoro-N-methylphenylsulfonamido)methyl)phenoxyacetic acid] | < 0.1
CN(Cc1ccc(OCC(=O)O)c(-c2cc(F)cc(C#N)c2)c1)S(=O)(=O)c1ccc(F)cc1 [Example 64, 2-(3-cyano-5-fluorophenyl)-4-((4-fluoro-N-methylphenylsulfonamido)methyl)phenoxyacetic acid] | < 0.1
CN(Cc1ccc(OCC(=O)O)c(-c2cccc(C#N)c2)c1)S(=O)(=O)c1ccc(Cl)c(F)c1 [Example 65, 2-(3-cyanophenyl)-4-((3-fluoro-4-chloro-N-methylphenylsulfonamido)methyl)phenoxyacetic acid] | < 0.1
Cc1cc(S(=O)(=O)N(C)Cc2ccc(OCC(=O)O)c(-c3cccc(C#N)c3)c2)ccc1F [Example 66, 2-(3-cyanophenyl)-4-((3-methyl-4-fluoro-N-methylphenylsulfonamido)methyl)phenoxyacetic acid] | < 0.1
CN(Cc1ccc(OCC(=O)O)c(-c2cc(F)cc(F)c2)c1)S(=O)(=O)c1ccc(F)c(Cl)c1 [Example 67, 2-(3,5-difluorophenyl)-4-((3-chloro4-fluoro-N-methylphenylsulfonamido)methyl)phenoxyacetic acid] | < 0.1
CN(Cc1ccc(OCC(=O)O)c(-c2cc(F)cc(F)c2)c1)S(=O)(=O)c1cccc(Cl)c1 [Example 68, 2-(3,5-difluorophenyl)-4-((3-chloro-N-methylphenylsulfonamido)methyl)phenoxyacetic acid] | < 0.1
COc1ccc(S(=O)(=O)N(C)Cc2ccc(OCC(=O)O)c(-c3cccc(S(C)(=O)=O)c3)c2)cc1 [Example 69, 2-(3-methylsulfonylphenyl)-4-((4-methoxy-N-methylphenylsulfonamido)methyl)phenoxyacetic acid] | < 0.1
CN(Cc1ccc(OCC(=O)O)c(-c2cccc(C#N)c2)c1)S(=O)(=O)c1cccc(Cl)c1 [Example 70, 2-(3-cyanophenyl)-4-((3-chloro-N-methylphenylsulfonamido)methyl)phenoxyacetic acid] | < 0.1
COc1ccc(S(=O)(=O)N(C)Cc2ccc(OCC(=O)O)c(-c3cccc(C#N)c3)c2)cc1F [Example 71, 2-(3-cyanophenyl)-4-((3-fluoro-4-methoxy-N-methylphenylsulfonamido)methyl)phenoxyacetic acid] | < 0.1
CN(Cc1ccc(OCC(=O)O)c(-c2cccc(S(C)(=O)=O)c2)c1)S(=O)(=O)c1cc(F)cc(F)c1 [Example 72, 2-(3-methylsulfonylphenyl)-4-((3,5-difluoro-N-methylphenylsulfonamido)methyl)phenoxyacetic acid] | < 0.1
CN(Cc1cc(-c2cccc(C#N)c2)c(OCC(=O)O)cc1Cl)S(=O)(=O)c1ccccc1 [Example 73, 2-(3-cyanophenyl)-4-((N-methylphenylsulfonamido)methyl)-5-chlorophenoxyacetic acid] | < 0.1
CN(Cc1ccc(OCC(=O)O)c(-c2cccc(C(F)(F)F)c2)c1)S(=O)(=O)c1ccc(F)c(Cl)c1 [Example 74, 2-(3-trifluoromethylphenyl)-4-((3-chloro-4-fluoro-N-methylphenylsulfonamido)methyl)phenoxyacetic acid] | < 0.1
CN(Cc1ccc(OCC(=O)O)c(-c2cncc(S(C)(=O)=O)c2)c1)S(=O)(=O)c1ccc(F)cc1 [Example 75, 2-(3-methylsulfonyl-5-pyridinyl)-4-((4-fluoro-N-methylphenylsulfonamido)methyl)phenoxyacetic acid] | < 0.1

Structure (SMILES) | IC50 [µM]
CN(Cc1ccc(OCC(=O)O)c(-c2cc(F)cc(C#N)c2)c1)S(=O)(=O)c1cc(F)cc(F)c1 [Example 76, 2-(3-cyano-5-fluorophenyl)-4-((3,5-difluoro-N-methylphenylsulfonamido)methyl)phenoxyacetic acid] | < 0.1
CN(Cc1cc(-c2cccc(C#N)c2)c(OCC(=O)O)cc1F)S(=O)(=O)c1ccc(F)cc1 [Example 77, 2-(3-cyanophenyl)-4-((4-fluoro-N-methylphenylsulfonamido)methyl)-5-fluorophenoxyacetic acid] | < 0.1
CN(Cc1ccc(OCC(=O)O)c(-c2cccc(S(C)(=O)=O)c2)c1)S(=O)(=O)c1ccccc1 [Example 78, 2-(3-methylsulfonylphenyl)-4-((N-methylphenylsulfonamido)methyl)phenoxyacetic acid] | < 0.1
CN(Cc1ccc(OCC(=O)O)c(-c2cc(F)cc(C(F)(F)F)c2)c1)S(=O)(=O)c1ccc(F)cc1 [Example 79, 2-(3-trifluoromethyl-5-fluorophenyl)-4-((4-fluoro-N-methylphenylsulfonamido)methyl)phenoxyacetic acid] | < 0.1
CN(Cc1ccc(OCC(=O)O)c(-c2cc(F)cc(C#N)c2)c1)S(=O)(=O)c1ccccc1 [Example 80, 2-(3-cyano-5-fluorophenyl)-4-((N-methylphenylsulfonamido)methyl)phenoxyacetic acid] | < 0.1
CS(=O)(=O)c1cccc(-c2cc(CNS(=O)(=O)c3ccc(F)cc3)ccc2OCC(=O)O)c1 [Example 81, 2-(3-methylsulfonylphenyl)-4-((4-fluorophenylsulfonamido)methyl)phenoxyacetic acid] | < 0.1
Cc1cc(S(=O)(=O)N(C)Cc2ccc(OCC(=O)O)c(-c3cc(F)cc(F)c3)c2)ccc1F [Example 82, 2-(3,5-difluorophenyl)-4-((3-methyl-4-fluoro-N-methylphenylsulfonamido)methyl)phenoxyacetic acid] | < 0.1
CCS(=O)(=O)c1cccc(-c2cc(CN(C)S(=O)(=O)c3ccc(F)cc3)ccc2OCC(=O)O)c1 [Example 83, 2-(3-ethylsulfonylphenyl)-4-((4-fluoro-N-methylphenylsulfonamido)methyl)phenoxyacetic acid] | < 0.1
Cc1ccc(-c2cc(CN(C)S(=O)(=O)c3ccc(F)cc3)ccc2OCC(=O)O)cc1S(C)(=O)=O [Example 84, 2-(3-methylsulfonyl-4-methyl-phenyl)-4-((4-fluoro-N-methylphenylsulfonamido)methyl)phenoxyacetic acid] | < 0.1
CN(C)S(=O)(=O)c1cccc(-c2cc(CN(C)S(=O)(=O)c3ccc(F)cc3)ccc2OCC(=O)O)c1 [Example 85, 2-(3-N,N-dimethylsulfamoylphenyl)-4-((4-fluoro-N-methylphenylsulfonamido)methyl)phenoxyacetic acid] | < 0.1
CN(Cc1ccc(OCC(=O)O)c(-c2cccc(S(C)(=O)=O)c2)c1)S(=O)(=O)c1ccc(C#N)cc1 [Example 86, 2-(3-methylsulfonylphenyl)-4-((4-cyano-N-methylphenylsulfonamido)methyl)phenoxyacetic acid] | < 0.1
CN(Cc1cc(-c2cccc(C#N)c2)c(OCC(=O)O)cc1F)S(=O)(=O)c1cccc(F)c1 [Example 87, 2-(3-cyanophenyl)-4-((3-fluoro-N-methylphenylsulfonamido)methyl)-5-fluorophenoxyacetic acid] | < 0.1
CN(Cc1ccc(OCC(=O)O)c(-c2cccc(S(C)(=O)=O)c2)c1)S(=O)(=O)c1cccc(C#N)c1 [Example 88, 2-(3-methylsulfonylphenyl)-4-((3-cyano-N-methylphenylsulfonamido)methyl)phenoxyacetic acid] | < 0.1
CN(Cc1ccc(OCC(=O)O)c(-c2cccc(C#N)c2)c1)S(=O)(=O)c1cccc(F)c1 [Example 89, 2-(3-cyanophenyl)-4-((3-fluoro-N-methylphenylsulfonamido)methyl)phenoxyacetic acid] | < 0.1
CN(Cc1ccc(OCC(=O)O)c(-c2cc(F)cc(F)c2)c1)S(=O)(=O)c1ccc(F)c(F)c1 [Example 90, 2-(3,5-difluorophenyl)-4-((3,4-difluoro-N-methylphenylsulfonamido)methyl)phenoxyacetic acid] | < 0.1
